From patent US6737383B1, “Herbicidal oxadiazolidines” (priority 1999, dated 2004)

How the values were obtained:
rape = experiment: Test B pre/postemergence rape; assay type: in vivo, Brassica napus
In short: (§1)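 Test chemicals in a non-phytotoxic solvent mixture with surfactant were sprayed preemergence onto planted seeds and postemergence onto plants 2 to 18 cm tall (1- to 4-leaf stage). After twelve to sixteen days in a greenhouse, injury was visually rated against untreated controls from 0 (no effect) to 10 (complete control).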

velvetleaf = experiment: Test B pre/postemergence velvetleaf; assay type: in vivo, Abutilon theophrasti
In short: as §1

wheat = experiment: Test B pre/postemergence wheat; assay type: in vivo, Triticum aestivum
In short: as §1

bamyardgrass = experiment: Test B flood test barnyardgrass; assay type: in vivo, Echinochloa crus-galli
In short: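 Each value is a visual injury score relative to controls, with 10 meaning complete control and 0 no effect. Evaluation took place twelve to sixteen days after the 2-leaf-stage plants were treated and kept in the greenhouse.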

[1] = Postemergence, Rate 125 g/ha, scale 0 to 10, 0 is no effect, 10 is complete control
[2] = Postemergence, Rate 250 g/ha, scale 0 to 10, 0 is no effect, 10 is complete control
[3] = Preemergence, Rate 62 g/ha, scale 0 to 10 (0 no effect, 10 complete control)
[4] = Preemergence, Rate 250 g/ha, scale of 0 to 10 where 0 is no effect and 10 is complete control
[5] = Preemergence, Rate 500 g/ha, scale of 0 to 10 where 0 is no effect and 10 is complete control
[6] = Rate 62 g/ha, Postemergence, scale of 0 to 10 where 0 is no effect and 10 is complete control
[7] = Rate 500 g/ha, Postemergence, scale 0 to 10, 0 no effect, 10 complete control
[8] = Postemergence, Rate 500 g/ha, scale of 0 to 10 where 0 is no effect and 10 is complete control
[9] = Preemergence, Rate 125 g/ha, scale of 0 to 10 where 0 is no effect and 10 is complete control
[10] = Preemergence, Rate 250 g/ha, scale 0 to 10, 0 is no effect, 10 is complete control
[11] = Preemergence, Rate 500 g/ha, scale 0 to 10, 0 is no effect, 10 is complete control
[12] = Postemergence (flood test), Rate 125 g/ha, scale 0 to 10, 0 is no effect, 10 is complete control
[13] = Postemergence section (flood test species), Rate 500 g/ha, scale of 0 to 10 where 0 is no effect and 10 is complete control
[14] = Rate 62 g/ha, Postemergence (flood test species), scale of 0 to 10 where 0 is no effect and 10 is complete control
[15] = flood test species, listed under Postemergence, Rate 250 g/ha, scale 0 to 10, 0 is no effect, 10 is complete control
[16] = Postemergence, Rate 250 g/ha, scale 0 to 10
[17] = Rate 125 g/ha, Postemergence, scale 0 to 10, 0 is no effect, 10 is complete control

SMILES | Plant response rating, Rape (rape; [2]) | Plant response rating, Rape (rape; [3]) | Rape plant response rating (rape; [6]) | Plant response rating, Velvetleaf (velvetleaf; [2]) | Plant response rating, Velvetleaf (velvetleaf; [3]) | Velvetleaf plant response rating (velvetleaf; [6]) | Plant response rating, Wheat (wheat; [3]) | Wheat plant response rating (wheat; [6]) | Rape plant response rating (rape; [8]) | Plant response rating, Rape (rape; [9]) | Rape plant response rating (rape; [10]) | Rape plant response rating (rape; [11]) | Velvetleaf plant response rating (velvetleaf; [8]) | Plant response rating, Velvetleaf (velvetleaf; [9]) | Velvetleaf plant response rating (velvetleaf; [10]) | Velvetleaf plant response rating (velvetleaf; [11]) | Wheat plant response rating (wheat; [8]) | Plant response rating, Wheat (wheat; [9]) | Wheat plant response rating (wheat; [10]) | Wheat plant response rating (wheat; [11]) | further results
CCOc1nc(C(F)(F)F)c(Cn2c(=O)on(C(=O)N(c3ccc(F)cc3)C(C)C)c2=O)s1 [Compound 381] | 0 | 0 | 0 | 0 | 0 | 0 | 0 | 0 | – | – | – | – | – | – | – | – | – | – | – | – | Plant response rating, Rape (rape; [1]): 0; Rape plant response rating (0 to 10 scale) (rape; Preemergence, Rate 125 g/ha): 0; Rape plant response rating (rape; [4]): 0; Rape plant response rating (rape; [5]): 0; Plant response rating, Rape (rape; [7]): 6; Plant response rating, Velvetleaf (velvetleaf; [1]): 0; Velvetleaf plant response rating (0 to 10 scale) (velvetleaf; Preemergence, Rate 125 g/ha): 0; Velvetleaf plant response rating (velvetleaf; [4]): 0; Velvetleaf plant response rating (velvetleaf; [5]): 0; Plant response rating, Velvetleaf (velvetleaf; [7]): 0; Plant response rating, Wheat (wheat; [1]): 0; Plant response rating, Wheat (wheat; [2]): 0; Wheat plant response rating (0 to 10 scale) (wheat; Preemergence, Rate 125 g/ha): 0; Wheat plant response rating (wheat; [4]): 0; Wheat plant response rating (wheat; [5]): 0; Plant response rating, Wheat (wheat; [7]): 0; Plant response rating, Barnyardgrass (0 to 10 scale, 0 is no effect, 10 is complete control) (bamyardgrass; Rate 62 g/ha, flood test species, Pre-emergence, visual evaluation after twelve to sixteen days): 0; Barnyardgrass plant response rating (0 to 10 scale, 0 is no effect, 10 is complete control) (bamyardgrass; Rate 125 g/ha, under heading Pre-emergence, flood test species, visual evaluation after twelve to sixteen days): 0; Barnyardgrass plant response rating (bamyardgrass; Rate 250 g/ha, Pre-emergence, flood-test species, scale 0 to 10, 0 is no effect, 10 is complete control): 0; Barnyardgrass plant response rating (bamyardgrass; Rate 500 g/ha, Pre-emergence, flood test species, scale 0 to 10 (0 no effect, 10 complete control)): 0
CCOC(=O)C=C(Cn1c(=O)on(C(=O)N(c2ccc(F)cc2)C(C)C)c1=O)OCC [Compound 396] | 0 | 0 | 0 | 0 | 0 | 0 | 0 | 0 | 6 | 0 | 0 | 0 | 0 | 0 | 0 | 0 | 0 | 0 | 0 | 0 | Plant response rating, Barnyardgrass (bamyardgrass; [12]): 0; Barnyardgrass plant response rating (bamyardgrass; [13]): 0; Barnyardgrass plant response rating (bamyardgrass; [14]): 0; Plant response rating, Barnyardgrass (bamyardgrass; [15]): 0
CC(=O)C(C)n1c(=O)on(C(=O)N(c2ccc(F)cc2)C(C)C)c1=O (centres unmarked) [Compound 400] | 0 | 0 | 0 | 0 | 0 | 0 | 0 | 0 | 0 | 0 | 0 | 0 | 0 | 0 | 0 | 2 | 0 | 0 | 0 | 0 | Plant response rating, Barnyardgrass (bamyardgrass; [12]): 0; Barnyardgrass plant response rating (bamyardgrass; [13]): 0; Barnyardgrass plant response rating (bamyardgrass; [14]): 0; Plant response rating, Barnyardgrass (bamyardgrass; [15]): 0
CC(C)N(C(=O)n1oc(=O)n(C[Si](C)(C)c2ccccc2)c1=O)c1ccc(Cl)cc1 [Compound 424] | – | 0 | – | – | 0 | – | 0 | – | 0 | 0 | 0 | 0 | 0 | 0 | 0 | 0 | 0 | 0 | 0 | 0 | Rape plant response rating (rape; [16]): 0; Rape plant response rating (rape; [17]): 0; Velvetleaf plant response rating (velvetleaf; [16]): 0; Velvetleaf plant response rating (velvetleaf; [17]): 0; Wheat plant response rating (wheat; [16]): 0; Wheat plant response rating (wheat; [17]): 0; Barnyardgrass plant response rating (bamyardgrass; Postemergence block (flood test species), Rate 250 g/ha, scale 0 to 10): 0; Barnyardgrass plant response rating (bamyardgrass; [13]): 0; Barnyardgrass plant response rating (bamyardgrass; [14]): 0; Barnyardgrass plant response rating (bamyardgrass; Rate 125 g/ha, Postemergence section (flood test species), scale 0 to 10, 0 is no effect, 10 is complete control): 0
